pIC50: −log10 of the molar value.

Usually pIC50 stands for the negative decadic logarithm of the IC50, by convention in mol/L.

For experiment [1], the target named is T1, Cathepsin S (Homo sapiens, UniProt P25774). Briefly: Inhibition of human recombinant cathepsin S expressed in baculovirus by FRET assay.
Experiment [2] concerns the target T1, Cathepsin S. Briefly: Inhibition of cathepsin S in human JY cells assessed as invariant chain li degradation by Western blotting. Type of experiment: cell-based.

T1 sequence (P25774 whole entry): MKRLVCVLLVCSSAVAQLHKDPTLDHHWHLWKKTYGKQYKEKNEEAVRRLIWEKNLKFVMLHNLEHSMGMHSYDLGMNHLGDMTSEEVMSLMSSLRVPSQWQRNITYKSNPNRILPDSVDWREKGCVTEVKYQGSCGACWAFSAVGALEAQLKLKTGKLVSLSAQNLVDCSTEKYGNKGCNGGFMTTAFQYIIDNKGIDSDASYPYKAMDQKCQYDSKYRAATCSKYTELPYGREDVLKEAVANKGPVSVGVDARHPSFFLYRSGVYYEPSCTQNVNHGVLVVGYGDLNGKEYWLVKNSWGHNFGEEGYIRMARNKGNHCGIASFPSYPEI

Regarding `CN(Cc1ccccc1)Cc1ccc(C#Cc2cc(-c3nn(CCCN4CCOCC4)c4c3CN(S(C)(=O)=O)CC4)ccc2Cl)cc1`, the results for the pIC50 at Cathepsin S [1] and at Cathepsin S [2] were 6.22 and under 5.00, respectively.

As for `CC(C)(C)OC(=O)N1CCN(CC(O)Cn2nc(-c3ccc(Cl)c(C#Cc4ccc(Cl)cc4)c3)c3c2CCN(S(C)(=O)=O)C3)CC1` (centres undefined), the values for the pIC50 on Cathepsin S [1] and on Cathepsin S [2] were 6.82 and under 5.00, respectively.

In the case of `CS(=O)(=O)N1CCc2c(c(-c3ccc(Cl)c(C#Cc4ccc(CNCCc5ccccc5)cc4)c3)nn2CCCN2CCOCC2)C1`, at Cathepsin S [2], the pIC50 was 5.24.

For `CC(=O)N1CCC(C2CCN(C[C@H](O)Cn3nc(-c4ccc(Cl)c(C#Cc5ccc(Cl)cc5)c4)c4c3CCN(S(C)(=O)=O)C4)CC2)CC1`, the pIC50 on Cathepsin S [2] is 5.00.

Turning to `CN1CCC(C2CCN(C[C@H](O)Cn3nc(-c4ccc(Cl)c(C#Cc5ccc(Cl)cc5)c4)c4c3CCN(S(C)(=O)=O)C4)CC2)CC1`, the pIC50 at Cathepsin S [2] is 6.14.

For `CS(=O)(=O)N1CCc2c(c(-c3ccc(Cl)c(C#Cc4ccc(CN)cc4)c3)nn2CCCN2CCOCC2)C1`, the pIC50 on Cathepsin S [1] was 6.31; on Cathepsin S [2], 5.00.

On to `Cc1ccc(CNCc2ccc(C#Cc3cc(-c4nn(CCCN5CCOCC5)c5c4CN(S(C)(=O)=O)CC5)ccc3Cl)cc2)cc1`, for which, on Cathepsin S [2], the pIC50 was 5.96.

For the compound `COc1ccc(CNCc2ccc(C#Cc3cc(-c4nn(CCCN5CCOCC5)c5c4CN(S(C)(=O)=O)CC5)ccc3Cl)cc2)cc1`, the pIC50 on Cathepsin S [2] is 6.09.

Consider `CS(=O)(=O)N1CCc2c(c(-c3ccc(Cl)c(C#Cc4ccc(Cl)cc4)c3)nn2CC(O)CN2CCCCC2)C1` (centres undefined), for which the pIC50 at Cathepsin S [2] was under 5.00.

As to `CS(=O)(=O)N1CCc2c(c(-c3ccc(Cl)c(C#Cc4ccc(Cl)cc4)c3)nn2CC(O)CN2CCC(C(N)=O)CC2)C1` (centres undefined), the pIC50 at Cathepsin S [2] is under 5.00.

In the case of `CS(=O)(=O)N1CCc2c(c(-c3ccc(Cl)c(C#Cc4ccc(CNC(=O)c5ccccc5)cc4)c3)nn2CCCN2CCOCC2)C1`, the pIC50 on Cathepsin S [2] is under 5.00.

With `CS(=O)(=O)N1CCc2c(c(-c3ccc(Cl)c(C#Cc4ccc(Cl)cc4)c3)nn2CC(O)CN2CCOCC2)C1` (centres undefined), the figures for the pIC50 on Cathepsin S [1] and on Cathepsin S [2] were 6.85 and under 5.00, respectively.

Regarding `CS(=O)(=O)N1CCc2c(c(-c3ccc(Cl)c(C#Cc4ccc(Cl)cc4)c3)nn2CC(O)CN2CCNCC2)C1` (centres undefined), the pIC50 is 6.42 at Cathepsin S [1] and under 5.00 at Cathepsin S [2].

`CS(=O)(=O)N1CCc2c(c(-c3ccc(Cl)c(C#Cc4ccc(CNCc5ccccc5)cc4)c3)nn2CCCN2CCOCC2)C1`: the pIC50 on Cathepsin S [1] is 6.38; on Cathepsin S [2], 5.38.

Regarding `CS(=O)(=O)N1CCc2c(c(-c3ccc(Cl)c(C#Cc4ccc(CNS(=O)(=O)c5ccccc5)cc4)c3)nn2CCCN2CCOCC2)C1`, the pIC50 on Cathepsin S [1] is 6.80; at Cathepsin S [2] it was under 5.00.

Consider `CC(C)(C)OC(=O)N1CCC(C2CCN(C[C@H](O)Cn3nc(-c4ccc(Cl)c(C#Cc5ccc(Cl)cc5)c4)c4c3CCN(S(C)(=O)=O)C4)CC2)CC1`, for which the pIC50 at Cathepsin S [2] is under 5.00.

For `CS(=O)(=O)N1CCc2c(c(-c3ccc(Cl)c(C#Cc4ccc(CN[C@@H](CO)c5ccccc5)cc4)c3)nn2CCCN2CCOCC2)C1`, the pIC50 on Cathepsin S [2] is 5.77.

For the compound `COC(=O)[C@H](NCc1ccc(C#Cc2cc(-c3nn(CCCN4CCOCC4)c4c3CN(S(C)(=O)=O)CC4)ccc2Cl)cc1)c1ccccc1`, the pIC50 on Cathepsin S [1] was 7.00; at Cathepsin S [2] it was under 5.00.

In the case of `CS(=O)(=O)N1CCc2c(c(-c3ccc(Cl)c(C#Cc4ccc(CNCc5ccc(Cl)c(Cl)c5)cc4)c3)nn2CCCN2CCOCC2)C1`, the pIC50 at Cathepsin S [2] was 5.74.

Regarding `CS(=O)(=O)N1CCc2c(c(-c3ccc(Cl)c(C#Cc4ccc(CNCc5ccc(Cl)cc5)cc4)c3)nn2CCCN2CCOCC2)C1`, the pIC50 was 6.85 on Cathepsin S [1] and 5.82 on Cathepsin S [2].

On to `COC(=O)C1CCN(CC(O)Cn2nc(-c3ccc(Cl)c(C#Cc4ccc(Cl)cc4)c3)c3c2CCN(S(C)(=O)=O)C3)CC1` (centres undefined), for which the pIC50 on Cathepsin S [2] is under 5.00.

Consider `COC(=O)[C@@H](NCc1ccc(C#Cc2cc(-c3nn(CCCN4CCOCC4)c4c3CN(S(C)(=O)=O)CC4)ccc2Cl)cc1)c1ccccc1`, for which the pIC50 on Cathepsin S [2] is under 5.00.

Consider `CNCc1ccc(C#Cc2cc(-c3nn(CCCN4CCOCC4)c4c3CN(S(C)(=O)=O)CC4)ccc2Cl)cc1`, for which the pIC50 was 5.89 at Cathepsin S [1] and under 5.00 on Cathepsin S [2].

On to `CS(=O)(=O)N1CCc2c(c(-c3ccc(Cl)c(C#Cc4ccc(Cl)cc4)c3)nn2C[C@@H](O)CN2CCC(C3CCNCC3)CC2)C1`, for which the pIC50 on Cathepsin S [2] is 6.70.

For the origin of these results see ChEMBL document CHEMBL1154180, “Pyrazole-based arylalkyne cathepsin S inhibitors. Part II: optimization of cellular potency” (Bioorg Med Chem Lett, 2009).
